Test results reported in patent US20130338106A1, “COMPOUNDS INHIBITING LEUCINE-RICH REPEAT KINASE ENZYME ACTIVITY” (priority 2011, published 2013).

Key:
Type in all cases: biochemical
Conditions in all cases: tested at 10 uM, read-out: percent inhibition of the kinase activity
AKT2 = target: T1, AKT2 (Homo sapiens, UniProt P31751); assay: ProfilerPro Kinase Selectivity, AKT2
T1 construct: purchased Caliper LifeSciences
Method: (§1) Kinome selectivity profiling was performed using two example compounds according to the manufacturer's instructions using Caliper LifeSciences' ProfilerPro Kinase Selectivity Assay Kits. Compounds prepared in Examples 1 and 7 were tested at 10 uM and data were recorded using the Caliper LabChip® EZ Reader™. Each compounds' percent inhibition of the kinase activity measured in this manner is reported in the following lists.

AMPKA1 = target: T2, AMPKA1 (Homo sapiens, UniProt Q13131); assay: ProfilerPro Kinase Selectivity, AMPKA1
T2 construct: purchased Caliper LifeSciences
Method: as §1

AMPKA2/B1/G1 = target: T3, AMPKA2/B1/G1 (Homo sapiens, UniProt P54646); assay: ProfilerPro Kinase Selectivity, AMPKA2/B1/G1
T3 construct: purchased Caliper LifeSciences
T3 sequence (P54646 whole entry): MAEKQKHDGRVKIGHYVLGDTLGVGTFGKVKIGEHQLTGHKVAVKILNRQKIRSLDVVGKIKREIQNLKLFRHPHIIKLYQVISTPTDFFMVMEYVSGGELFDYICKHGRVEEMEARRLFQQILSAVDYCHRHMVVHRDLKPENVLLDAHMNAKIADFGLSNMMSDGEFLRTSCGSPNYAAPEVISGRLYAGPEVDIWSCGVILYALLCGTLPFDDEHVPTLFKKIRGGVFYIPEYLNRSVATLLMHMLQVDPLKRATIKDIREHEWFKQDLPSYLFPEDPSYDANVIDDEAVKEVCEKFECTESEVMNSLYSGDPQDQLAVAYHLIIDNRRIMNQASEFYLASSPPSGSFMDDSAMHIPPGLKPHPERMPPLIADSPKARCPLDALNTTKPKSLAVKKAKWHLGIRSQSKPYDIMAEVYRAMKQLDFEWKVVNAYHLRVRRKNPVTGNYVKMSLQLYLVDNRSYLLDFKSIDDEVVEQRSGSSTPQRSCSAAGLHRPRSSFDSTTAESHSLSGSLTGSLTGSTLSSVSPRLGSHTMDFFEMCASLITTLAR
T3 sequence (Q9Y478 whole entry partner): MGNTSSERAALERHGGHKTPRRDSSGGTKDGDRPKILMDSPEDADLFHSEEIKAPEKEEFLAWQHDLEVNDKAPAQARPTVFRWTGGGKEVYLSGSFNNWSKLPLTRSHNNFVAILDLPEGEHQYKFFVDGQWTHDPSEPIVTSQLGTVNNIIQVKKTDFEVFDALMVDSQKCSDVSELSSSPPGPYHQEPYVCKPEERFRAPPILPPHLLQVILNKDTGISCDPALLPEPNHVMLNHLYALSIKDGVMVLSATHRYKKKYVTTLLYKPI
T3 sequence (P54619 whole entry partner): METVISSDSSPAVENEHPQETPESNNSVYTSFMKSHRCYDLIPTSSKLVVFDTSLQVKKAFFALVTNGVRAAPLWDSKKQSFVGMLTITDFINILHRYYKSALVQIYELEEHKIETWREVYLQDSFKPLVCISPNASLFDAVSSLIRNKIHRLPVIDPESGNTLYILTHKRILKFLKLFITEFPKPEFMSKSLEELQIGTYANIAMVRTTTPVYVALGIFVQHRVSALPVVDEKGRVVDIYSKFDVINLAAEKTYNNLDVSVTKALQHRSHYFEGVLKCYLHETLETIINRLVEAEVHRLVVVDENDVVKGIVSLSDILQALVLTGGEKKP
Method: as §1

BRSK1 = target: T4, BRSK1 (Homo sapiens, UniProt Q8TDC3); assay: ProfilerPro Kinase Selectivity, BRSK1
T4 construct: purchased Caliper LifeSciences
Method: as §1

CAMK1A = target: T5, CAMK1A (Homo sapiens, UniProt Q14012); assay: ProfilerPro Kinase Selectivity, CAMK1A
T5 construct: purchased Caliper LifeSciences
T5 sequence (Q14012 whole entry): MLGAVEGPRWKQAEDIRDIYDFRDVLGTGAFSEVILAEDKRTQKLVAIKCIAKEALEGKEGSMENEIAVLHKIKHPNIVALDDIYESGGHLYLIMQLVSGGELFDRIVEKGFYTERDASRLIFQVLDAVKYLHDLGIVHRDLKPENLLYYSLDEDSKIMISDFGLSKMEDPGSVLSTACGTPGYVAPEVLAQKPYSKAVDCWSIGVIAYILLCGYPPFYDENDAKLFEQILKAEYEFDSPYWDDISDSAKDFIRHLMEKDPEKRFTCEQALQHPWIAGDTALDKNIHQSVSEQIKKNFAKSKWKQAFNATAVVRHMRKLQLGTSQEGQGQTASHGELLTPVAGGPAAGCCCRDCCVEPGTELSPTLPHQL
Method: as §1

CAMK4 = target: T6, CAMK4 (Homo sapiens, UniProt Q16566); assay: ProfilerPro Kinase Selectivity, CAMK4
T6 construct: purchased Caliper LifeSciences
T6 sequence (Q16566 whole entry, species assumed): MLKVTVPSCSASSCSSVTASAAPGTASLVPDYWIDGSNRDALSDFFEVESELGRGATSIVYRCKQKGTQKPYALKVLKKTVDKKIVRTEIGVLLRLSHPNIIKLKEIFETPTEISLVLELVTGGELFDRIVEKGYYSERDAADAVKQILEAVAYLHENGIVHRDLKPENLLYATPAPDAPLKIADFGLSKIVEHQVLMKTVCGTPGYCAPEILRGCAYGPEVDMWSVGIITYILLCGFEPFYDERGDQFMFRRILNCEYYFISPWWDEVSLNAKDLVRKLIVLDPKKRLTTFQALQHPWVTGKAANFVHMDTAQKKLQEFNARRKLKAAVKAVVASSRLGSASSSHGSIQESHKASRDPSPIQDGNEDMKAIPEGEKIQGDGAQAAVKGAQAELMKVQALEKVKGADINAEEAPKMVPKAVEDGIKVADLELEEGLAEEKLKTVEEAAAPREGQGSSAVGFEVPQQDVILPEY
Method: as §1

CK1G1 = target: T7, CK1G1 (Homo sapiens, UniProt Q9HCP0); assay: ProfilerPro Kinase Selectivity, CK1G1
T7 construct: purchased Caliper LifeSciences
Method: as §1

C-TAK1 = target: T8, C-TAK1 (Homo sapiens, UniProt P27448); assay: ProfilerPro Kinase Selectivity, C-TAK1
T8 construct: purchased Caliper LifeSciences
Method: as §1

DDR2 = target: T9, DDR2 (Homo sapiens, UniProt Q16832); assay: ProfilerPro Kinase Selectivity, DDR2
T9 construct: purchased Caliper LifeSciences
Method: as §1

EPHA3 = target: T10, EPHA3 (Homo sapiens, UniProt P29320); assay: ProfilerPro Kinase Selectivity, EPHA3
T10 construct: purchased Caliper LifeSciences
Method: as §1

EPHB3 = target: T11, EPHB3 (Homo sapiens, UniProt P54753); assay: ProfilerPro Kinase Selectivity, EPHB3
T11 construct: purchased Caliper LifeSciences
Method: as §1

ERK1 = target: T12, ERK1 (Homo sapiens, UniProt P27361); assay: ProfilerPro Kinase Selectivity, ERK1
T12 construct: purchased Caliper LifeSciences
T12 sequence (P27361 whole entry, species assumed): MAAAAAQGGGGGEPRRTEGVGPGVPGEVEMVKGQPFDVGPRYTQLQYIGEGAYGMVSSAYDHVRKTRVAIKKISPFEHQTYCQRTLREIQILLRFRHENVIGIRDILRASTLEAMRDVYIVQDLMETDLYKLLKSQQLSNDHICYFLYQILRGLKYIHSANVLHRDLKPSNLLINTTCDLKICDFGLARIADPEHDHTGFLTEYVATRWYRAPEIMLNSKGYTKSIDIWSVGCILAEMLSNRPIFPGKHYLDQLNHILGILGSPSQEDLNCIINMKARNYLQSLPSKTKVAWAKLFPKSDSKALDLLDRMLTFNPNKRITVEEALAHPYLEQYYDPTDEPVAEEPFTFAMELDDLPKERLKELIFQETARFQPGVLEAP
Method: as §1

FES = target: T13, FES (Homo sapiens, UniProt P07332); assay: ProfilerPro Kinase Selectivity, FES
T13 construct: purchased Caliper LifeSciences
Method: as §1

FGFR2 N549H = target: T14, FGFR2 N549H (Homo sapiens, UniProt P21802, N549H); assay: ProfilerPro Kinase Selectivity, FGFR2 N549H
T14 construct: purchased Caliper LifeSciences
T14 sequence (P21802 22-821 N549H): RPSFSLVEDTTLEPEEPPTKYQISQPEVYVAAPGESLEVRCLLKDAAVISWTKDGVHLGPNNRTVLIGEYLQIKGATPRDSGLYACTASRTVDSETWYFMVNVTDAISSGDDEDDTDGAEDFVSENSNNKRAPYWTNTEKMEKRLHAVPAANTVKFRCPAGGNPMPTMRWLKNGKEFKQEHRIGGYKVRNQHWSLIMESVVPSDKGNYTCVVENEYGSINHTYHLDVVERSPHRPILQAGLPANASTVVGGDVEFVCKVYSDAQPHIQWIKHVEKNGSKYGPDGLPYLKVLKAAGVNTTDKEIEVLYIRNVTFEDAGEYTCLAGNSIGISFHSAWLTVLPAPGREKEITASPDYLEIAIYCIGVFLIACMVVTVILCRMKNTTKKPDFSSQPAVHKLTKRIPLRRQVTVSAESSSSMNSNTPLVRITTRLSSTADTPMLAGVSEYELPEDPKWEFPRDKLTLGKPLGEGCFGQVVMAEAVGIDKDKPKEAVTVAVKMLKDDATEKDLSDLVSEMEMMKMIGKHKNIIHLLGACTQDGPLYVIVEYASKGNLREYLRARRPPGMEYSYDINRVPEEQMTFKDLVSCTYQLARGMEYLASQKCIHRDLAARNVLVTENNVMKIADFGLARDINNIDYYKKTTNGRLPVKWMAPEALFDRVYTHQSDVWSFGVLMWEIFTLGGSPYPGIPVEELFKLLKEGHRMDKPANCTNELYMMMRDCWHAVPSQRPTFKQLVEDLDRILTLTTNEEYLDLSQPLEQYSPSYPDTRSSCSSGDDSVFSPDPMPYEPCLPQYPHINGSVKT
Method: as §1

FGFR3 K650E = target: T15, FGFR3 K650E (Homo sapiens, UniProt P22607, K650E); assay: ProfilerPro Kinase Selectivity, FGFR3 K650E
T15 construct: purchased Caliper LifeSciences
Method: as §1

FGFR4 = target: T16, FGFR4 (Homo sapiens, UniProt P22455); assay: ProfilerPro Kinase Selectivity, FGFR4
T16 construct: purchased Caliper LifeSciences
Method: as §1

FGR = target: T17, FGR (Homo sapiens, UniProt P09769); assay: ProfilerPro Kinase Selectivity, FGR
T17 construct: purchased Caliper LifeSciences
Method: as §1

FLT3 = target: T18, FLT3 (Homo sapiens, UniProt P36888); assay: ProfilerPro Kinase Selectivity, FLT3
T18 construct: purchased Caliper LifeSciences
Method: as §1

GSK3A = target: T19, GSK3A (Homo sapiens, UniProt P49840); assay: ProfilerPro Kinase Selectivity, GSK3A
T19 construct: purchased Caliper LifeSciences
Method: as §1

IGF1R = target: T20, IGF1R (Homo sapiens, UniProt P08069); assay: ProfilerPro Kinase Selectivity, IGF1R
T20 construct: purchased Caliper LifeSciences
Method: as §1

IRAK4 = target: T21, IRAK4 (Homo sapiens, UniProt Q9NWZ3); assay: ProfilerPro Kinase Selectivity, IRAK4
T21 construct: purchased Caliper LifeSciences
Method: as §1

LCK = target: T22, LCK (Homo sapiens, UniProt P06239); assay: ProfilerPro Kinase Selectivity, LCK
T22 construct: purchased Caliper LifeSciences
Method: as §1

LOK = target: T23, LOK (Homo sapiens, UniProt O94804); assay: ProfilerPro Kinase Selectivity, LOK
T23 construct: purchased Caliper LifeSciences
Method: as §1

NTRK2 = target: T24, NTRK2 (Homo sapiens, UniProt Q16620); assay: ProfilerPro Kinase Selectivity, NTRK2
T24 construct: purchased Caliper LifeSciences
Method: as §1

P38A/SAPK2A T106M = target: T25, P38A/SAPK2A T106M (Homo sapiens, UniProt Q16539, T106M); assay: ProfilerPro Kinase Selectivity, P38A/SAPK2A T106M
T25 construct: purchased Caliper LifeSciences
Method: as §1

PASK = target: T26, PASK (Homo sapiens, UniProt Q96RG2); assay: ProfilerPro Kinase Selectivity, PASK
T26 construct: purchased Caliper LifeSciences
Method: as §1

PIM-3 = target: T27, PIM-3 (Homo sapiens, UniProt Q86V86); assay: ProfilerPro Kinase Selectivity, PIM-3
T27 construct: purchased Caliper LifeSciences
Method: as §1

PKG1B = target: T28, PKG1B (Homo sapiens, UniProt Q13976); assay: ProfilerPro Kinase Selectivity, PKG1B
T28 construct: purchased Caliper LifeSciences
Method: as §1

PRKCD = target: T29, PRKCD (Homo sapiens, UniProt Q05655); assay: ProfilerPro Kinase Selectivity, PRKCD
T29 construct: purchased Caliper LifeSciences
Method: as §1

PRKCE = target: T30, PRKCE (Homo sapiens, UniProt Q02156); assay: ProfilerPro Kinase Selectivity, PRKCE
T30 construct: purchased Caliper LifeSciences
Method: as §1

PRKCG = target: T31, PRKCG (Homo sapiens, UniProt P05129); assay: ProfilerPro Kinase Selectivity, PRKCG
T31 construct: purchased Caliper LifeSciences
Method: as §1

PRKCZ = target: T32, PRKCZ (Homo sapiens, UniProt Q05513); assay: ProfilerPro Kinase Selectivity, PRKCZ
T32 construct: purchased Caliper LifeSciences
Method: as §1

RET = target: T33, RET (Homo sapiens, UniProt P07949); assay: ProfilerPro Kinase Selectivity, RET
T33 construct: purchased Caliper LifeSciences
Method: as §1

RSK3 = target: T34, RSK3 (Homo sapiens, UniProt Q15349); assay: ProfilerPro Kinase Selectivity, RSK3
T34 construct: purchased Caliper LifeSciences
Method: as §1

RSK4 = target: T35, RSK4 (Homo sapiens, UniProt Q9UK32); assay: ProfilerPro Kinase Selectivity, RSK4
T35 construct: purchased Caliper LifeSciences
T35 sequence (Q9UK32 whole entry, species assumed): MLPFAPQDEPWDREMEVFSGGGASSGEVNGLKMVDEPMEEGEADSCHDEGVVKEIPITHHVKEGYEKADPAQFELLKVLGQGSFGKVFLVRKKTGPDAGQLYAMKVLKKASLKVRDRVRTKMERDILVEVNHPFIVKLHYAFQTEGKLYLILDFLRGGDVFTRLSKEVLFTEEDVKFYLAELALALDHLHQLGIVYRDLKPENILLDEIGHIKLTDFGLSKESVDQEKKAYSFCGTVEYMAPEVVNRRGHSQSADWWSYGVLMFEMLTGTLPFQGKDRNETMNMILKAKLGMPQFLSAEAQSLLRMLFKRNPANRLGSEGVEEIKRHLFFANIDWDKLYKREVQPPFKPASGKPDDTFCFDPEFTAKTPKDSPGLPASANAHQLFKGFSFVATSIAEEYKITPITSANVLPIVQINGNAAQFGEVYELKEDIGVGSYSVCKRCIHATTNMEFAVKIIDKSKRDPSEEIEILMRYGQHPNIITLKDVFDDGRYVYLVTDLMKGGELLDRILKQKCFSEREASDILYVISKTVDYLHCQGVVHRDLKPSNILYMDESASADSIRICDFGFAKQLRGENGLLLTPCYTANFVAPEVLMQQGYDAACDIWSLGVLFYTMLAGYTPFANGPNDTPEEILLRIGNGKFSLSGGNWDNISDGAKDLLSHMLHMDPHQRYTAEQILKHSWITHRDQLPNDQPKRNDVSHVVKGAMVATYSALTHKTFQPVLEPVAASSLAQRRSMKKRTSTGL
Method: as §1

SGK = target: T36, SGK (Homo sapiens, UniProt O00141); assay: ProfilerPro Kinase Selectivity, SGK
T36 construct: purchased Caliper LifeSciences
Method: as §1

SGK2 = target: T37, SGK2 (Homo sapiens, UniProt Q9HBY8); assay: ProfilerPro Kinase Selectivity, SGK2
T37 construct: purchased Caliper LifeSciences
Method: as §1

TRKC = target: T38, TRKC (Homo sapiens, UniProt Q16288); assay: ProfilerPro Kinase Selectivity, TRKC
T38 construct: purchased Caliper LifeSciences
T38 sequence (Q16288 32-839, species assumed): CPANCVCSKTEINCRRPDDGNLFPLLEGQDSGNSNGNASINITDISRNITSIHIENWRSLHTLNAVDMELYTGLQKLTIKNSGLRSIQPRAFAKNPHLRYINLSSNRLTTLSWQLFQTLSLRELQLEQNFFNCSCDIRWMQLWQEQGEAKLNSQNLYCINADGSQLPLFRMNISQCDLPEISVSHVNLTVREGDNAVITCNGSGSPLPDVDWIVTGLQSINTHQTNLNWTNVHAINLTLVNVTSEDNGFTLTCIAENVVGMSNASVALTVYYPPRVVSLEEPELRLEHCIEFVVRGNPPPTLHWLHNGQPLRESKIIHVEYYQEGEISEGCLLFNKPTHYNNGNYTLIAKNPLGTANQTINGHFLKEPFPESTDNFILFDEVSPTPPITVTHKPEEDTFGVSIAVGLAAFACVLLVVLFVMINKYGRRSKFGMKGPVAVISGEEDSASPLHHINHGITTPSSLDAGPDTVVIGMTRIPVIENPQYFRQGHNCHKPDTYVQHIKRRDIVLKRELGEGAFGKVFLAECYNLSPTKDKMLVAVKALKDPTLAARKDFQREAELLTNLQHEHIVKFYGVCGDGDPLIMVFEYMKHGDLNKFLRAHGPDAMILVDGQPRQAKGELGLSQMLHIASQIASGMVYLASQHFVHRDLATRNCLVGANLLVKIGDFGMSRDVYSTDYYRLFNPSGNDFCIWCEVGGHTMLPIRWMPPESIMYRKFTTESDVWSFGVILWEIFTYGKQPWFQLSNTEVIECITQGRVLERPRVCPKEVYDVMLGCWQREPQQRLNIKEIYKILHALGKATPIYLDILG
Method: as §1

SMILES	inhibition at 10 µM (AKT2)	inhibition at 10 µM (AMPKA1)	inhibition at 10 µM (AMPKA2/B1/G1)	inhibition at 10 µM (BRSK1)	inhibition at 10 µM (CAMK1A)	inhibition at 10 µM (CAMK4)	inhibition at 10 µM (CK1G1)	inhibition at 10 µM (C-TAK1)	inhibition at 10 µM (DDR2)	inhibition at 10 µM (EPHA3)	inhibition at 10 µM (EPHB3)	inhibition at 10 µM (ERK1)	inhibition at 10 µM (FES)	inhibition at 10 µM (FGFR2 N549H)	inhibition at 10 µM (FGFR3 K650E)	inhibition at 10 µM (FGFR4)	inhibition at 10 µM (FGR)	inhibition at 10 µM (FLT3)	inhibition at 10 µM (GSK3A)	inhibition at 10 µM (IGF1R)	also measured
CC1(C)CC(=O)c2c(SC3CCCC3)sc(-c3cc[nH]n3)c2C1 [Example 7, 3-(Cyclopentylsulfanyl)-6,6-dimethyl-1-(1H-pyrazol-3-yl)-6,7-dihydro-2-benzothiophen-4(5H)-one]	-6.8%	-0.5%	4.5%	3.8%	6%	-1.5%	10.9%	4.7%	-3.9%	-2.9%	2.2%	1.9%	-3.1%	-5.8%	-4.2%	-0.1%	-1.6%	4.6%	-8.3%	-3.7%	inhibition at 10 µM (IRAK4): 3.7%; inhibition at 10 µM (LCK): 23.3%; inhibition at 10 µM (LOK): -32.6%; inhibition at 10 µM (NTRK2): 7%; inhibition at 10 µM (P38A/SAPK2A T106M): 3.7%; inhibition at 10 µM (PASK): -10.8%; inhibition at 10 µM (PIM-3): 8.2%; inhibition at 10 µM (PKG1B): -0.6%; inhibition at 10 µM (PRKCD): 12.6%; inhibition at 10 µM (PRKCE): 3.9%; inhibition at 10 µM (PRKCG): 2.3%; inhibition at 10 µM (PRKCZ): 0.5%; inhibition at 10 µM (RET): 20.7%; inhibition at 10 µM (RSK3): 2%; inhibition at 10 µM (RSK4): -5.6%; inhibition at 10 µM (SGK): -1.3%; inhibition at 10 µM (SGK2): 5.4%; inhibition at 10 µM (TRKC): 0.5%
CSc1sc(-c2cc[nH]n2)c2c1C(=O)CCC2 [Example 1, 3-(Methylsulfanyl)-1-(1H-pyrazol-3-yl)-6,7-dihydro-2-benzothiophen-4(5H)-one]	-6.8%	16.4%	-2.7%	-0.2%	7.4%	20.1%	6.6%	5.3%	0.8%	-2.2%	-1%	-2%	-2.8%	1.4%	3.7%	5.9%	-7.2%	11.4%	8.5%	5.4%	inhibition at 10 µM (IRAK4): 31.1%; inhibition at 10 µM (LCK): 4%; inhibition at 10 µM (LOK): 7.5%; inhibition at 10 µM (NTRK2): 16.9%; inhibition at 10 µM (P38A/SAPK2A T106M): 1.2%; inhibition at 10 µM (PASK): 2.6%; inhibition at 10 µM (PIM-3): 23.7%; inhibition at 10 µM (PKG1B): 10.8%; inhibition at 10 µM (PRKCD): -14.8%; inhibition at 10 µM (PRKCE): -2.7%; inhibition at 10 µM (PRKCG): 10%; inhibition at 10 µM (PRKCZ): 0.4%; inhibition at 10 µM (RET): 24.4%; inhibition at 10 µM (RSK3): 9.4%; inhibition at 10 µM (RSK4): 2.9%; inhibition at 10 µM (SGK): -5.1%; inhibition at 10 µM (SGK2): 10.6%; inhibition at 10 µM (TRKC): 10.3%
